In patent US10751387B2, “Pharmacological therapy for neuronopathic Gaucher disease” (priority 2016, dated 2020):
“And” between values parts separate entries of the source, which are not always exact repeats. Equal values may be shown once.

How the values were obtained:
[1] = test system: CBE-N2a cells; assay: Substrate (GC, GS) levels in nGD cell model (CBE-N2a) by ESI-LC-MS/MS; format: cell-based, mouse; settings: 5 days
Method: (§1) N2a cells were maintained in DMEM/10% FBS (Gibco) medium. Neuronal differentiation of N2a was carried out in the differentiation medium containing 0.5% FBS, 10 μM retinoic acid, 50 ng/ml GDNF (Alomore lab) and 1 mM dbcAMP in DMEM for 3 days (37). The differentiated N2a cells were treated with 2 mM CBE for 5 days in the differentiation medium. […]. The medium with the reagents was changed every 2 days. The differentiation status of the neuronal cells was confirmed by anti-Map2 (mature neuron) or anti-Nestin (undifferentiated neuronal cells) antibody staining. Cell viability after each drug treatment was measured by CellTiter-Fluoirm Cell Viability assay (Promega). […]. The cells were from same passage and treated at the same time for all the experiments.
(§2) Glycosphingolipids in mouse brains and N2a cells were extracted with chloroform and methanol as described (83). GC and GS content in the extracts was analysed by ESI-LC-MS/MS using a Waters Quattro Micro API triple quadrupole mass spectrometer (Milford, Mass.) interfaced with Acquity UPLC system as described (35). The concentration of GC and GS in the brain was normalized to mg tissue weight and in the cells was normalized by mg protein in the cell lysate.

[2] = test system: CBE-N2a cells; assay: Cytosolic calcium level measurement with Fura-2 after caffeine; format: cell-based, mouse; settings: CBE-N2a cells vs untreated; dantrolene 12.5 μM, ryanodine 10 μM, G6 0.8 μM, 5 days; caffeine 10 mM
Method: (§4) N2a cells were maintained in DMEM/10% FBS (Gibco) medium. Neuronal differentiation of N2a was carried out in the differentiation medium containing 0.5% FBS, 10 μM retinoic acid, 50 ng/ml GDNF (Alomore lab) and 1 mM dbcAMP in DMEM for 3 days (37). The differentiated N2a cells were treated with 2 mM CBE for 5 days in the differentiation medium. […] The medium with the reagents was changed every 2 days. […] Cell viability after each drug treatment was measured by CellTiter-Fluoirm Cell Viability assay (Promega). […] The cells were from same passage and treated at the same time for all the experiments.
Intracellular calcium levels were determined using the Fura-2 QBT Calcium Kit (Molecular Devices, Sunnyvale, Calif.) on 96 well plates by M5 SpectraMax plate reader (Molecular Devices). N2a cells were seeded in each well (20,000/well) with differentiation medium (0.5% FBS, DMEM, 10 AM retinoic acid, 1 mM dbcAMP) for 72 h (37). […] The cell medium was replaced every two days. The treated cells were incubated with Fura-2 QBT dye at 37 C for 1 h for Fura-2 QBT uptake (Fura2 QBT® calcium kit protocol, Molecular Devices). Caffeine (10 mM) was used as an ER calcium efflux stimulant in the assay (38,39). The plate reader setting was 340/380 nm (excitation) and 510 nm (emission). Baseline calcium levels were measured prior to caffeine addition (−30 s). Cytosolic calcium levels were recorded every 30 s for duration of 300 s after addition of caffeine. Relative cytosolic calcium levels were determined with the values at 300 s endpoint minus Os baseline. Relative cytosolic calcium level [Fura-2 AF/F (340/380510 nm] for control or treated cells was calculated by Fura-2 fluorescence unit (FU) measured at 340 nm/510 nm (AF=RFU/340 at 300 s end point minus baseline RFU/340 at 0 s) divided by FU at 380 nm/510 nm (F=RFU/380 at 300 s-baseline RFU/380 at 0 s) (Fura2 QBT® calcium kit protocol, Molecular Devices) and normalized to protein level in cells. Data were collected and analysed by SoftMax Pro software (Molecular Devices) and graphical charts were generated by Graphpad Prism 6.0.

[3] = Body and organ weights of treated mice; format: in vivo, mouse; settings: IP 10 mg/kg three days per week
[4] = test system: Ryr3; assay: Immunoblot of Ryr3 in CBE-N2a cells; format: cell-based, mouse; settings: dantrolene 12.5 μM, untreated 47%
Method: as §1
Half of mice brain (sagittal cut) tissues were homogenized in M-PER Mammalian Protein Extraction Reagent and subjected to electrophoresis. Ryr proteins (−500 kD) in tissues lysate were separated on 3-8% NuPAGE gel running at 90V for 12 h at 4° C. in acetate buffer. […] LC3, CAMK IV and calmodulin were separated on 16% Tris-glycine gel (Novex) and detected by anti-LC3 (1:1000), anti-CAMK IV (1:500) or anti-CAM (1:1000), respectively. The signals were detected with either ECL detection reagent or AP Conjugate Substrate Kit according to manufacturer's instructions. Band intensities on immunoblots were quantitated by Image J (NIH, Baltimore, Va.).

[5] = test system: Ryr3; assay: Immunoblot of Ryr3 in 4L;C* cerebrum; format: in vivo, mouse; settings: 44 days of age, untreated 9%
Method: (§3) Half of mice brain (sagittal cut) tissues were homogenized in M-PER Mammalian Protein Extraction Reagent and subjected to electrophoresis. Ryr proteins (−500 kD) in tissues lysate were separated on 3-8% NuPAGE gel running at 90V for 12 h at 4° C. in acetate buffer. […] was resolved on 4-12% Bis-Tris gel. The proteins were transferred to PVDF membrane using iBlot 2 gel transfer device following manufacturer's instructions. The blots were incubated with anti-mouse Ryr3 monoclonal antibody (1/250) or anti-13-actin (1:5000) overnight at 4° C. in 1.5% BSA/1.5% milk/PBS buffer. LC3, CAMK IV and calmodulin were separated on 16% Tris-glycine gel (Novex) and detected by anti-LC3 (1:1000), anti-CAMK IV (1:500) or anti-CAM (1:1000), respectively. The signals were detected with either ECL detection reagent or AP Conjugate Substrate Kit according to manufacturer's instructions. Band intensities on immunoblots were quantitated by Image J (NIH, Baltimore, Va.).

[6] = test system: CAMK IV; assay: Immunoblot of CAMK IV in 4L;C* cerebrum; format: in vivo, mouse; set-up: reference not given here; settings: untreated 61% of WT level
Method: as §3

[7] = test system: Ryr1 and Ryr3; settings: reference 58; cited from earlier work
[8] = test system: 4L;C* mice; assay: Gait analysis in nGD mouse model
Method: Progression of the neurobehavioural phenotype was assessed by gait analysis to determine sensorimotor function (77,78). Mice were trained to walk through a narrow alley leading into their home-cage. Once trained, paper was placed along the alley floor and the hind paws of each mouse were brushed with nontoxic paint. The mice were then placed at the beginning of the alley. As they walked into their home-cage they left their paw prints on the paper underneath. Stride length and width were determined by measuring the distance between hind paw prints. The 4L;C* and control mice, untreated and non-4L;C* littermates were tested for gait at 30 and 40 days of age.

[9] = test system: 4L;C* mice; assay: Survival / life span in nGD mouse model; settings: IP 10 mg/kg three days per week
Method: The data are presented as mean±SEM and were analysed by Student's t-test or one-way ANOVA with post-hoc Tukey test using GraphPad Prism 6. The level of significance was set at P<0.05. Survival analysis was performed using Kaplan-Meier and the Mantel-Cox tests.

[10] = test system: N2a cells; assay: Substrate (GC, GS) levels in N2a cells by ESI-LC-MS/MS; format: cell-based, mouse; settings: G6 0.8 μM, 5 days
Method: as §1, §2

[11] = test system: CBE-N2a cells; assay: Seahorse mitochondrial function assay (OCR) in cells; format: cell-based, mouse; settings: CBE-N2a cells vs untreated CBE-N2a; dantrolene 12.5 μM, G6 0.8 μM
Method: as §4
Cell numbers were determined using a haemocytometer. Prior to mitochondrial function assay on XF96 Extracellular Flux Analyzers (Seahorse Biosciences), the cells in the wells of XF96 assay plates were washed by gently adding warm assay medium to the side of each well. […] The respiration parameters were calculated by subtracting the average respiration rates before and after the addition of the electron transport inhibitors: oligomycin, FCCP and antimycin A. The parameters include basal respiration (baseline respiration minus antimycin A post injection respiration), ATP production (baseline respiration minus oligomycin post injection respiration), and maximal respiratory (FCCP stimulated respiration minus antimycin A post injection respiration). […]

[12] = test system: ryanodine receptor; settings: vendor listing (Sigma); cited from earlier work

Compound | GC and GS levels ([1]; CBE-N2a cells, dantrolene 12.5 μM, G6 0.8 μM) | Cytosolic calcium level above baseline after caffeine [Fura-2 ΔF/F] [2] | Body or organ weights [3] | Ryr3 protein level, % of WT level [4] [%] | Ryr3 protein level, % of WT [5] [%] | CAMK IV expression increase [6] [%] | Ryr specificity [7] | Base stride width ([8]; IP 10 mg/kg three days per week from postnatal day 5, 30 and 40 days of age, vs untreated) | Stride length increase compared to untreated 4L;C* mice ([8]; IP 10 mg/kg three days per week, 40 days of age) [%] | Life span / survival prolonged compared to untreated 4L;C* mice ([9]; 10 mg/kg) | Median survival days ([9]; untreated 44 days) [days] | GC reduction to % of untreated levels [10] [%] | GS level ([1]; CBE-N2a cells vs untreated) | GC reduction to % of untreated levels ([1]; CBE-N2a cells, G6 0.8 μM) [%] | Oxygen Consumption Rate (OCR: ATP production, basal respiration, maximal respiration) [11] | Ryanodine receptor antagonist concentration [12] [µM]
O=C1CN(/N=C/c2ccc(-c3ccc([N+](=O)[O-])cc3)o2)C(O)=N1 [Dantrolene] | did not affect | significantly reduced | did not affect | 76 | 77 | 28 | specific to Ryr1 and Ryr3 | significantly reduced | 30 | 12.3% and 12.7% | 50 | – | – | – | – | –
CC(C)(NC(=O)OC1CN2CCC1CC2)c1cccc(-c2ccc(F)cc2)c1 (stereo not drawn) [G6] | – | significantly lower | – | – | – | – | – | – | – | – | – | 7 | significantly decreased | 26 | significant increases | –
Ryanodine | – | significant reduction | – | – | – | – | – | – | – | – | – | – | – | – | – | > 10
